Literature values as cited in patent US5831002A, “Antitumor peptides” (BASF Aktiengesellschaft, priority 1995, dated 1998).

Conditions: background, literature; cited from earlier work

Substance | cell growth inhibitory activity
Dolastatin-10 | potent cell growth inhibitory activity
Dolastatin-15 | potent cell growth inhibitory activity
